We go through 11 compounds from ChEMBL document CHEMBL1133326, “Alpha-ketoamides, alpha-ketoesters and alpha-diketones as HCV NS3 protease inhibitors” (Bioorg Med Chem Lett, 2000).

*1 amine or outer side, *2 acyl side, *3 side chain or, on linkers, in order; H or OH if unused. Where a SMILES comes first, the peptide text is derived from it. [ ]: non-standard residue; d: D form. The star is where a group is joined. Abu(ψCOCO) = CC[C@H](N[*:1])C(=O)C(=O)[*:2]; Boc = CC(C)(C)OC(=O)*; OtBu = CC(C)(C)O*; NHAllyl = C=CCN*

Chain of NS3 (A3EZJ3 whole entry): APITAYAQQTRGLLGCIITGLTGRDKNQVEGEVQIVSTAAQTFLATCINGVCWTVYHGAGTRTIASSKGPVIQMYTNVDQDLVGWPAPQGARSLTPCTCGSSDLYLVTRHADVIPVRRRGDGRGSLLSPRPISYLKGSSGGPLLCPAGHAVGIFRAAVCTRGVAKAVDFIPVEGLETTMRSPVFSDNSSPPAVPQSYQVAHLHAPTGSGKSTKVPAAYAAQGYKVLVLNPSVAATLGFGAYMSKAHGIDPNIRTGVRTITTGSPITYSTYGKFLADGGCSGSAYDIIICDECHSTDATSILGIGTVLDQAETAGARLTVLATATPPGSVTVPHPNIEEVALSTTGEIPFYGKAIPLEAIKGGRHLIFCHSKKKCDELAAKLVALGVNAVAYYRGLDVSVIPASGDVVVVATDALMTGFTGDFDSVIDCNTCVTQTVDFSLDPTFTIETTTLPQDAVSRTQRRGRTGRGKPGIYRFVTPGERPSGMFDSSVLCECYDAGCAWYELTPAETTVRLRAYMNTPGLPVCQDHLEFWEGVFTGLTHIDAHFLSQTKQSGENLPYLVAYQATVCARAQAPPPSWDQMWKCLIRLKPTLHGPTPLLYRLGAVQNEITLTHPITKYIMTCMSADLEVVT

This experiment concerns the target NS3 (Hepatitis C virus, UniProt A3EZJ3). Kind of experiment: Inhibition against hepatitis C virus protease NS3 activity. More on the design: species or system Hepacivirus hominis.
The compound `C=CCC(NC(=O)[C@H]1CCCN1C(=O)[C@@H](NC(=O)[C@@H](NC(=O)[C@H](CCC(=O)OC(C)(C)C)NC(=O)[C@H](CC(=O)OC(C)(C)C)NC(=O)OC(C)(C)C)C(C)C)C(C)C)C(=O)C(=O)OC` (stereo partly specified) yielded an IC50 of over 30 µM.

As to `C=CCC(NC(=O)[C@H]1CCCN1C(=O)[C@@H](NC(=O)[C@@H](NC(=O)[C@H](CCC(=O)O)NC(=O)[C@@H](N)CC(=O)O)C(C)C)C(C)C)C(=O)C(=O)CC(C)C` (stereo partly specified), inhibition was half-maximal at 4.8 µM (IC50).

For the compound `C=CCC(NC(=O)[C@H]1CCCN1C(=O)[C@@H](NC(=O)[C@@H](NC(=O)[C@H](CCC(=O)O)NC(=O)[C@@H](N)CC(=O)O)C(C)C)C(C)C)C(=O)C(=O)C1CC=CCC1` (stereo partly specified), the 50% inhibitory concentration (IC50) stood at 4.23 µM.

`C=CCNC(=O)C(=O)[C@H](CC)NC(=O)[C@@H]1CCCN1C(=O)[C@@H](NC(=O)[C@@H](NC(=O)[C@H](CCC(=O)O)NC(=O)[C@@H](N)CC(=O)O)C(C)C)C(C)C` (H-DEVVP[Abu(ψCOCO)]-NHAllyl) had a 50% inhibitory concentration (IC50) of 0.42 µM.

In turn, `C=CCNC(=O)C(=O)[C@H](CC)NC(=O)[C@@H]1CCCN1C(=O)[C@@H](NC(=O)[C@@H](NC(=O)[C@H](CCC(=O)OC(C)(C)C)NC(=O)[C@H](CC(=O)OC(C)(C)C)NC(=O)OC(C)(C)C)C(C)C)C(C)C` (Boc-D(OtBu)E(OtBu)VVP[Abu(ψCOCO)]-NHAllyl) gave a half-inhibitory concentration (IC50) of 0.84 µM.

In the case of `C=CCNC(=O)C(=O)C(CC=C)NC(=O)[C@H]1CCCN1C(=O)[C@@H](NC(=O)[C@@H](NC(=O)[C@H](CCC(=O)O)NC(=O)[C@@H](N)CC(=O)O)C(C)C)C(C)C` (stereo partly specified), half-maximal inhibition (IC50) was put at 0.34 µM.

`C=CCC(NC(=O)[C@H]1CCCN1C(=O)[C@@H](NC(=O)[C@@H](NC(=O)[C@H](CCC(=O)O)NC(=O)[C@@H](N)CC(=O)O)C(C)C)C(C)C)C(=O)C(=O)NCC` (stereo partly specified) gave an IC50 of 0.35 µM.

In turn, Ac-DEVVPC-OH yielded a concentration for half-maximal inhibition (IC50) of 2.5 µM.

The compound `C=CCC(NC(=O)[C@H]1CCCN1C(=O)[C@@H](NC(=O)[C@@H](NC(=O)[C@H](CCC(=O)OC(C)(C)C)NC(=O)[C@H](CC(=O)OC(C)(C)C)NC(=O)OC(C)(C)C)C(C)C)C(C)C)C(=O)C(=O)CC(C)C` (stereo partly specified) came in with an IC50 of over 30 µM.

For `C=CCC(NC(=O)[C@H]1CCCN1C(=O)[C@@H](NC(=O)[C@@H](NC(=O)[C@H](CCC(=O)O)NC(=O)[C@@H](N)CC(=O)O)C(C)C)C(C)C)C(=O)C(=O)OC` (stereo partly specified), the half-maximal inhibitory concentration (IC50) was determined as 4.34 µM.

In the case of `C=CCNC(=O)C(=O)C(CC=C)NC(=O)[C@H]1CCCN1C(=O)[C@@H](NC(=O)[C@@H](NC(=O)[C@H](CCC(=O)OC(C)(C)C)NC(=O)[C@H](CC(=O)OC(C)(C)C)NC(=O)OC(C)(C)C)C(C)C)C(C)C` (stereo partly specified), the 50% inhibitory concentration (IC50) turned out to be 0.57 µM.

A word on the IC50: it is the concentration that gives 50% inhibition.
